Results reported in US10143201B2, “Fungicidal compositions” (Syngenta Crop Protection LLC, priority 2007, dated 2018).
Values joined by “and” are separate entries in the source; they are usually repeats but may differ in a detail not shown here. Identical values can stand only once.

What was measured:
[1] = test system: Cercospora arachidicola (syn. Mycosphaerella arachidis); assay: Fungicidal action against Cercospora arachidicola (brown leaf spot of groundnut), microtiter growth inhibition; format: cell-based; settings: compound alone
Description: Example B8: Fungicidal Action Against Cercospora arachidicola (Syn. Mycosphaerella arachidis), Brown Leaf Spot of Groundnut (Peanut)
(§1) Conidia of the fungus from cryogenic storage are directly mixed into nutrient broth (PDB potato dextrose broth). After placing a (DMSO) solution of the test compounds into a microtiter plate (96-well format) the nutrient broth containing the fungal spores is added. The test plates are incubated at 24 C and the inhibition of growth is evaluated after 7 days.

[2] = test system: Septoria tritici; assay: Fungicidal action against Septoria tritici (leaf blotch), microtiter growth inhibition; format: cell-based; settings: alone
Description: Example B3: Fungicidal Action Against Septoria tritici (Leaf Blotch)
as §1, with “24° C.” for “24 C”, “4” for “7”, “days. The expected fungicidal action is calculated according to the Colby method.” for “days.”

[3] = test system: Botrytis cinerea; assay: Fungicidal action against Botrytis cinerea (gray mould), microtiter growth inhibition; format: cell-based; settings: alone
Description: Example B2: Fungicidal Action Against Botrytis cinerea (Gray Mould)
as §1, with “24° C.” for “24 C”, “4” for “7”, “days. The expected fungicidal action is calculated according to the Colby method.” for “days.”

[4] = test system: Pyrenophora teres; assay: Fungicidal action against Pyrenophora teres (net blotch), microtiter growth inhibition; format: cell-based
Description: Example B6: Fungicidal Action Against Pyrenophora teres (Net Blotch)
as §1, with “24° C.” for “24 C”, “4” for “7”, “days. The expected fungicidal action is calculated according to the Colby method.” for “days.”

[5] = test system: Alternaria solani; assay: Fungicidal action against Alternaria solani (early blight tomato/potato), microtiter growth inhibition; format: cell-based; settings: alone
Description: Example B4: Fungicidal Action Against Alternaria solani (Early Blight Tomato/Potato)
as §1, with “24° C.” for “24 C”, “3” for “7”, “days. The expected fungicidal action is calculated according to the Colby method.” for “days.”

[6] = test system: Pseudocercosporella herpotrichoides (syn. Tapesia yallundae); assay: Fungicidal action against Pseudocercosporella herpotrichoides (eye spot of cereals), microtiter growth inhibition; format: cell-based; settings: alone
Description: Example B5: Funicidal Action Against Pseudocercosporella herpotrichoides (Syn. Tapesia yallundae), Eye Spot of Cereals
as §1, with “24° C.” for “24 C”, “4” for “7”, “days. The expected fungicidal action is calculated according to the Colby method.” for “days.”

[7] = test system: Gaeumannomyces graminis; assay: Fungicidal action against Gaeumannomyces graminis (take-all of cereals), microtiter growth inhibition; format: cell-based; settings: compound alone
Description: Example B7: Fungicidal Action Against Gaeumannomyces graminis (Take-all of Cereals)
as §1, with “Mycelial fragments” for “Conidia”, “4” for “7”

[8] = test system: Phakopsora pachyrhizi; assay: Action against Asian soybean rust, leaf disc test; format: in vivo; settings: 14 days after inoculation
Description: Example B-1: Action Against Asian Soybean Rust (Phakopsora pachyrhizi)—Leaf Disc Test
Whole soybean plants (variety brand Williams82) are treated with the recited active ingredients 4 weeks after planting. 1 day after spraying leaf disks are cut from the first trifoliate leaf. Five repetitions at each rate are conducted. The leaf disks are inoculated with Phakopsora pachyrhizi (Asian soybean rust) one day after treatment. Evaluation of the leaf disks is conducted fourteen days after inoculation and the mean percent infestation of the five repetitions is calculated. Standard EC100 formulations are used. The rates of the active ingredients used are given in Table B1 as g active ingredient (a.i.)/ha.

[9] = test system: Monopraphella nivalis (syn. Microdochium nivale, Fusarium nivale); assay: Fungicidal action against Monopraphella nivalis (snow mould, foot rot of cereals), microtiter growth inhibition; format: cell-based; settings: compound alone
Description: Example B9: Fungicidal Action Against Monopraphella nivalis (Syn. Microdochium nivale, Fusarium nivale), Snow Mould, Foot Rot of Cereals
as §1, with “4” for “7”

[10] = test system: Colletotrichum lagenarium (syn. Glomerella lagenarium); assay: Fungicidal action against Colletotrichum lagenarium (anthracnose of cucurbits), microtiter growth inhibition; format: cell-based; settings: Colletotrichum orbiculare, compound alone
Description: as §1, with “Example B10: Fungicidal Action Against Colletotrichum lagenarium (Syn. Glomerella lagenarium), Anthracnose of Cucurbits Conidia” for “Conidia”, “3” for “7”

Cn1cc(C(=O)Nc2cccc3c2C2CCC3C2=C(Cl)Cl)c(C(F)F)n1 (stereo not drawn) [Compound A-1.1, 3-difluoromethyl-1-methyl-1H-pyrazole-4-carboxylic acid (9-dichloromethylidene-benzonorbornene-5-yl)amide]
% activity ([1]; 0.0039 ppm): 0% | % activity ([1]; 0.0078 ppm): 0% | % activity ([1]; 0.0156 ppm): 20% | % activity ([1]; 0.0313 ppm): 70% | % activity ([2]; 0.0625 ppm): 20% | % activity ([2]; 0.1250 ppm): 50% | % activity ([2]; 0.2500 ppm): 70% | % activity ([2]; 0.5000 ppm): 90% | % activity ([3]; 0.0156 ppm): 0% | % activity ([3]; 0.0313 ppm): 0% | % activity ([3]; 0.0625 ppm): 20% | % activity ([3]; 0.1250 ppm): 20% | % activity ([3]; 0.5000 ppm): 50% and 70% | % activity ([3]; 1.0000 ppm): 90% | % activity ([4]; 0.0078 ppm, alone): 0% | % activity ([4]; 0.0313 ppm, alone): 20% | % activity ([4]; 0.0625 ppm, alone): 20% | % activity ([4]; 0.1250 ppm, alone): 20% | % activity ([4]; 0.2500 ppm, alone): 50% | % activity ([4]; compound alone, 0.0313 ppm): 20% | % activity ([4]; compound alone, 0.0625 ppm): 20% | % activity ([4]; compound alone, 0.2500 ppm): 50% | % activity ([4]; compound alone, 0.5000 ppm): 50% and 70% | % activity ([4]; compound alone, 1.0000 ppm): 70% | % activity ([4]; compound alone, 2.0000 ppm): 70% | % activity ([5]; 0.0078 ppm): 0% | % activity ([5]; 0.0156 ppm): 20% | % activity ([5]; 0.0313 ppm): 20% | % activity ([5]; 0.0625 ppm): 50% | % activity ([5]; 0.1250 ppm): 50% | % activity ([5]; 0.2500 ppm): 50% | % activity ([6]; 0.0039 ppm): 0% | % activity ([6]; 0.0078 ppm): 0% | % activity ([6]; 0.0625 ppm): 70% | % activity ([7]; 0.0156 ppm): 50% and 70% | % Control of Phakopsora pachyrhizi ([8]; 31.25 g a.i./ha): 36% | % Control of Phakopsora pachyrhizi ([8]; 62.5 g a.i./ha): 36% | % Control of Phakopsora pachyrhizi ([8]; 125 g a.i./ha): 82% | % Control of Phakopsora pachyrhizi ([8]; 250 g a.i./ha): 87% | % activity ([9]; 0.0313 ppm): 20% | % activity ([9]; 0.0625 ppm): 50% | % activity ([9]; 0.1250 ppm): 90%

CC(Cc1ccc(C(C)(C)C)cc1)CN1C[C@@H](C)O[C@@H](C)C1 (stereo partly drawn) [Fenpropimorph]
inhibition at 0.0625 ppm ([1]; Mycosphaerella arachidis, 0.0625 ppm): 0% | inhibition at 0.125 ppm ([1]; Mycosphaerella arachidis, 0.1250 ppm): 0% | inhibition at 0.25 ppm ([1]; Mycosphaerella arachidis, 0.2500 ppm): 20% | inhibition at 0.5 ppm ([1]; Mycosphaerella arachidis, 0.5000 ppm): 50% | inhibition at 0.25 ppm ([10]; 0.2500 ppm): 0% | inhibition at 0.5 ppm ([10]; 0.5000 ppm): 0% | inhibition at 1 ppm ([10]; 1.0000 ppm): 20% | inhibition at 2 ppm ([10]; 2.0000 ppm): 20% | inhibition at 0.25 ppm ([7]; Gaeumannomyces graminis, 0.2500 ppm): 0% | inhibition at 0.5 ppm ([7]; Gaeumannomyces graminis, 0.5000 ppm): 0% | inhibition at 1 ppm ([7]; Gaeumannomyces graminis, 1.0000 ppm): 0% | inhibition at 2 ppm ([7]; Gaeumannomyces graminis, 2.0000 ppm): 20% | inhibition at 0.0625 ppm ([9]; Microdochium nivale, 0.0625 ppm): 0% | inhibition at 0.125 ppm ([9]; Microdochium nivale, 0.1250 ppm): 0% | inhibition at 0.25 ppm ([9]; Microdochium nivale, 0.2500 ppm): 0% | inhibition at 0.5 ppm ([9]; Microdochium nivale, 0.5000 ppm): 0% | inhibition at 1 ppm ([9]; Microdochium nivale, 1.0000 ppm): 0% | inhibition at 2 ppm ([9]; Microdochium nivale, 2.0000 ppm): 0%
